The text below walks through data of patent US20250221979A1, “NOVEL HETEROCYCLIC COMPOUND” (SHOUYAO HOLDINGS (BEIJING) CO., LTD., priority 2022, published 2025).

human MAT2A enzyme, sequence (P31153 whole entry): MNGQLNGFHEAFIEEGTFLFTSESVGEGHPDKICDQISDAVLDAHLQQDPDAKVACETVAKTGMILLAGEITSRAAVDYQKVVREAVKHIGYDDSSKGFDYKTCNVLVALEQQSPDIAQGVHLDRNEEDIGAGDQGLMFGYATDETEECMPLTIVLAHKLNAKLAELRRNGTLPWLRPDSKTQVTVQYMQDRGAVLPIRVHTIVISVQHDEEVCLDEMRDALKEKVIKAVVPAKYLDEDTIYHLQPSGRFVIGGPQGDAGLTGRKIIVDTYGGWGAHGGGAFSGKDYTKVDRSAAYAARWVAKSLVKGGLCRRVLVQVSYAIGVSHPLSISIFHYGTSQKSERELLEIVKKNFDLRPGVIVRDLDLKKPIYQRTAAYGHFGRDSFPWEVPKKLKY

The test has as its target human MAT2A enzyme (Homo sapiens (Human), UniProt P31153). The test is described as follows: In vitro enzymatic inhibition activity assay on MAT2A (PiColorLock phosphate detection). It counts as biochemical. The following applies: purified human MAT2A 10 nM, ATP 50 μM, L-methionine 100 μM, 6 h at 23° C.; read-out: MAT2A inhibitory activity IC50. As for the experimental part: Enzymatic activity assays of compounds of this patent against MAT2A (to detect half inhibitory concentration IC50 values of the compounds) were performed using the phosphate detection kit PiColorLockTM (ab270004, purchased from Abcam). This method utilized the principle that purified human MAT2A enzyme catalyzes the formation of S-adenosylmethionine (SAM) from L-methionine and ATP to release free phosphate, and used the spectrophotometric method to quantify phosphate, so as to determine the enzymatic activity of MAT2A. Compounds were diluted in a 10-fold gradient starting at 1 mM with 100% DMSO (for a total of 8 concentrations) and 2 μL of each concentration was added to 48 μL of reaction buffer (50 mM Tris-HCl PH 7.5, 50 mM KCl, 10 mM MgCl2, 0.01% Brij-35, 0.01% BSA, 1 mM DTT) and mixed well. The final diluted compound was prepared, and 5 μL of MAT2A enzyme (final concentration of 10 nM), 5 μL of ATP (final concentration of 50 μM), and 5 μL of L-methionine (final concentration of 100 μM) were added to each well of a 384-well plate (#3701, purchased from CORNING). After the 384-well plate was placed in the incubator at 23° C. for 6 h, 5 μL of PiColorLock reagent diluted Accelerator (dilution ratio 1:100) was added to each well, and the reaction was stopped by incubating in the incubator at 23° C. for 5 min. 2 μL of Stabiliser was added, the absorbance was read at 630 nm on BMG CLARIOstar, and the IC50 value of the compound was calculated by using GraphPad Prism software.
Under the conditions of this experiment, the inhibition of MAT2A by test compounds can be expressed as an IC50 value for the inhibition of the level of phosphate production during the enzymatic reaction.
On to `COC(=O)c1c(N)c2ccc(C(F)(F)F)nc2n(-c2ccc(N)nc2C)c1=O` [Example 308, methyl 4-amino-1-(6-amino-2-methylpyridin-3-yl)-2-oxo-7-(trifluoromethyl)-1,2-dihydro-1,8-naphthyridine-3-carboxylate], for which the IC50 (usually the midpoint of a concentration-inhibition curve) came out at 2.42 nM.

As for `C=Cc1ccc2c(N)c(C(=O)OC)c(=O)n(-c3ccccc3)c2c1` [Example 24, methyl 4-amino-7-vinyl-2-oxo-1-phenyl-1,2-dihydroquinoline-3—carboxylate], the IC50 came to 2.34 nM.

`COC(=O)c1c(N)c2ccc(C(F)(F)F)cc2n(-c2ccccc2Br)c1=O` [Example 93, methyl 4-amino-1-(2-bromophenyl)-2-oxo-7-(trifluoromethyl)-1,2-dihydroquinoline-3-carboxylate]: the IC50 stood at 7.39 nM.

Take `COC(=O)c1c(N)c2ccc(Br)cc2n(-c2ccc3ccncc3c2)c1=O` [Example 219, methyl 4-amino-7-bromo-1-(isoquinolin-7-yl)-2-oxo-1,2-dihydroquinoline-3-carboxylate]: the IC50 is 1.87 nM.

Take `COC(=O)c1c(N)c2ccc(C(F)(F)F)cc2n(-c2ccc(C(C)O)cc2C)c1=O` (centres unmarked) [Example 269, methyl 4-amino-1-(4-(1-hydroxyethyl)-2-methylphenyl)-2-oxo-7-(trifluoromethyl)-1,2-dihydroquinoline-3-carboxylate]: the IC50 came to 5.95 nM.

As for `COC(=O)c1c(N)c2ccc(Br)cc2n(-c2ccc(N)cc2F)c1=O` [Example 259, methyl 4-amino-1-(4-amino-2-fluorophenyl)-7-bromo-2-oxo-1,2-dihydro quinoline-3-carboxylate], the 50% inhibitory concentration (IC50) was determined as 1.08 nM.

In the case of `C=Cc1ccc2c(N)c(C(=O)OC)c(=O)n(-c3cccc4cnccc34)c2c1` [Example 185, methyl 4-amino-1-(isoquinolin-5-yl)-2-oxo-7-vinyl-1,2-dihydroquinoline-3-carboxylate], the IC50 worked out at 8.94 nM.

Take `[2H]CC(O)c1ccc(-n2c(=O)c(C(=O)OC([2H])([2H])[2H])c(N)c3ccc(C(F)(F)F)nc32)cc1` (centres unmarked) [Example 371, methyl-d3 4-amino-1-(4-(1-hydroxyethyl-2-d)phenyl)-2-oxo-7-(trifluoromethyl)-1,2-dihydro-1,8-naphthyridine-3-carboxylate]: the half-maximal inhibitory concentration (IC50) turned out to be 1.45 nM.

Turning to `COC(=O)c1c(N)c2ccc(Br)cc2n(Cc2ccccc2)c1=O` [Example 30, methyl 4-amino-1-benzyl-7-bromo-2-oxo-1,2-dihydroquinoline-3-carboxylate], the 50% inhibitory concentration (IC50) worked out at 6.1 nM.

Regarding `COC(=O)c1c(N)c2ccc(C(F)(F)F)cc2n(-c2ccccc2)c1=O` [Example 17, methyl 4-amino-7-trifluoromethyl-2-oxo-1-phenyl-1,2-dihydroquinoline-3-carboxylate], the IC50 worked out at 3.58 nM.

Regarding `COC(=O)c1c(N)c2ccc(OC(F)F)cc2n(-c2ccc([C@@H](C)O)cc2)c1=O` [Example 354, methyl (R)-4-amino-7-(difluoromethoxy)-1-(4-(1-hydroxyethyl)phenyl)-2-oxo-1,2-dihydroquinoline-3-carboxylate], the IC50 was found to be 0.46 nM.

On to `COC(=O)c1c(N)c2ccc(C(F)(F)F)cc2n(-c2ccc([C@H](C)O)cc2)c1=O` [Example 271, methyl 4-amino-1-(4-(1-(S)-hydroxyethyl)phenyl)-2-oxo-7-(trifluoromethyl)-1,2-dihydroquinoline-3-carboxylate], for which the half-maximal inhibitory concentration (IC50) amounted to 1.83 nM.

As for `COC(=O)c1c(N)c2ccc(C(F)(F)F)cc2n(-c2ccc3c(c2)CCC3(C)O)c1=O` (centres unmarked) [Example 148, methyl 4-amino-1-(1-hydroxy-1-methyl-2,3-dihydro-1H-inden-5-yl)-2-oxo-7-(trifluoromethyl)-1,2-dihydroquinoline-3-carboxylate], the IC50 turned out to be 2.83 nM.

For `COC(=O)c1c(N)c2ccc(Br)cc2n(-c2ccc(Br)cc2)c1=O` [Example 107, methyl 4-amino-7-bromo-1-(4-bromophenyl)-2-oxo-1,2-dihydroquinoline-3-carboxylate], the IC50 was 1.52 nM.
